Assay results from ChEMBL document CHEMBL5518240 (J Med Chem, 2024).
The source made the active and inactive calls. The calls are words filed in the database; no cut-off is given here.

Assays:
[1] = target: T1, Protein cereblon/CREB-binding protein (Homo sapiens, UniProt Q92793+Q96SW2); experiment: PROTAC activity at CBP/CRBN in human VCaP cells assessed as protein degradation incubated for 4 hrs by Western blot analysis; type: cell-based
Target sequence in this assay (Q92793 whole entry): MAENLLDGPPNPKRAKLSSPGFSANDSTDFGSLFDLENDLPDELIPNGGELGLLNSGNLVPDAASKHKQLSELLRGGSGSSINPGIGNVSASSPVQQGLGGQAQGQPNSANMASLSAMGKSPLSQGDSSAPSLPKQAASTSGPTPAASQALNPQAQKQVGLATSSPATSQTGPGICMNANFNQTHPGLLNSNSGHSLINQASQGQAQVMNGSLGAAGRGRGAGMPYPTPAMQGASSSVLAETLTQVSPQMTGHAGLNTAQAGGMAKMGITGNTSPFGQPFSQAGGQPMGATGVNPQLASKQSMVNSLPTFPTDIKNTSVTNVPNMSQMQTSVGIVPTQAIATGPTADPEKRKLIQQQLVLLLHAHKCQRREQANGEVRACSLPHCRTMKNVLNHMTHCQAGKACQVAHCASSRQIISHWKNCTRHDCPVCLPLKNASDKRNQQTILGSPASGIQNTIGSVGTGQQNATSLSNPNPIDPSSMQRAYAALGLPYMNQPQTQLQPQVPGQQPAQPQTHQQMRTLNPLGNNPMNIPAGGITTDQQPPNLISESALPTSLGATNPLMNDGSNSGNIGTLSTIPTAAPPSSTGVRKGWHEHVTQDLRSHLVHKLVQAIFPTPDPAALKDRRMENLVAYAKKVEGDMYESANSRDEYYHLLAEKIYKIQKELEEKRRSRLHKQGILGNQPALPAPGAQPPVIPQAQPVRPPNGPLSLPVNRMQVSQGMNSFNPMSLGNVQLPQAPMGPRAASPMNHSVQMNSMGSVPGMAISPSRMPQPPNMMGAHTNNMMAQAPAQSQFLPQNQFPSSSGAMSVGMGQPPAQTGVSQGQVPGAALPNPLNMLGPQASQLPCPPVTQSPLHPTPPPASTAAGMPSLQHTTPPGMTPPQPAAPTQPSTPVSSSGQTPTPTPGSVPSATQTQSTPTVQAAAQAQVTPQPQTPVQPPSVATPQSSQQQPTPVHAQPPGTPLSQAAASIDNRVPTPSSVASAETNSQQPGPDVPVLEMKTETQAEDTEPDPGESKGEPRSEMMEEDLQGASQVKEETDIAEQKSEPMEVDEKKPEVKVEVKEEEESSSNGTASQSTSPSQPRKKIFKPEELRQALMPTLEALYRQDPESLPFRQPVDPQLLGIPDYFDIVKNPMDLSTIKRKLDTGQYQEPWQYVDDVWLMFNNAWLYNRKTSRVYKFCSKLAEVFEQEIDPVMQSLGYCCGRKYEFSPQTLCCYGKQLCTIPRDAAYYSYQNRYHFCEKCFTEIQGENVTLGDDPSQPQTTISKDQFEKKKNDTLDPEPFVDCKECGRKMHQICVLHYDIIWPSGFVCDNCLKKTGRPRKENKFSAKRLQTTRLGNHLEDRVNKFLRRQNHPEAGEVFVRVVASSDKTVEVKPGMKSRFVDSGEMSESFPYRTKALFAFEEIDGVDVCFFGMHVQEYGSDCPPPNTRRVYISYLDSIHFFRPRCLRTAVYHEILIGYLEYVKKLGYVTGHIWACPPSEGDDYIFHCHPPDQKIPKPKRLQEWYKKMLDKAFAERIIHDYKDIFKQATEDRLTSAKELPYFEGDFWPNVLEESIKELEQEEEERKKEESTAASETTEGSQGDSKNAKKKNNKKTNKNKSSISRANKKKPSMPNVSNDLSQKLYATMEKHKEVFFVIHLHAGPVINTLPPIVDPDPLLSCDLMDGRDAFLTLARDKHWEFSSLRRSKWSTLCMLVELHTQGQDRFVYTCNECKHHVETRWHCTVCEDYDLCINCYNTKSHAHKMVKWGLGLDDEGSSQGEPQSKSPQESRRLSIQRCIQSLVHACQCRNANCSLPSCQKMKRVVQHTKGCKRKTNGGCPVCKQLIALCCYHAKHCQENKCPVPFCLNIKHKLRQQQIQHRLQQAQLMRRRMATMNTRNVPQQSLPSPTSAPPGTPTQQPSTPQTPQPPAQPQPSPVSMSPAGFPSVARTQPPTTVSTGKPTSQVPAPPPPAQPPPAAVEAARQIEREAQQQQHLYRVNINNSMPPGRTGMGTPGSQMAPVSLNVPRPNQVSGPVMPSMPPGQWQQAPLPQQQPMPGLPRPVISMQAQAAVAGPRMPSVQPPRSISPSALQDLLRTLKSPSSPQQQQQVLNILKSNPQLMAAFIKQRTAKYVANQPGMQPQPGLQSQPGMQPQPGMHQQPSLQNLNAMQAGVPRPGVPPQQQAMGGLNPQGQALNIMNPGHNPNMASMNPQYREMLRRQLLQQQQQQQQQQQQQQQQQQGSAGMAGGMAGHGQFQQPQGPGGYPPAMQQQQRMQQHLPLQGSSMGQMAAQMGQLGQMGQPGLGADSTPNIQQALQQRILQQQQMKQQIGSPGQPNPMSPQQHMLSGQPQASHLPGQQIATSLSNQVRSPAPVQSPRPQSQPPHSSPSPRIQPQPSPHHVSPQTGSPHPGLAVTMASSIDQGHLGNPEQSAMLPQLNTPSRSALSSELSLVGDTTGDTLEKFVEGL
Target sequence in this assay (Q96SW2 whole entry): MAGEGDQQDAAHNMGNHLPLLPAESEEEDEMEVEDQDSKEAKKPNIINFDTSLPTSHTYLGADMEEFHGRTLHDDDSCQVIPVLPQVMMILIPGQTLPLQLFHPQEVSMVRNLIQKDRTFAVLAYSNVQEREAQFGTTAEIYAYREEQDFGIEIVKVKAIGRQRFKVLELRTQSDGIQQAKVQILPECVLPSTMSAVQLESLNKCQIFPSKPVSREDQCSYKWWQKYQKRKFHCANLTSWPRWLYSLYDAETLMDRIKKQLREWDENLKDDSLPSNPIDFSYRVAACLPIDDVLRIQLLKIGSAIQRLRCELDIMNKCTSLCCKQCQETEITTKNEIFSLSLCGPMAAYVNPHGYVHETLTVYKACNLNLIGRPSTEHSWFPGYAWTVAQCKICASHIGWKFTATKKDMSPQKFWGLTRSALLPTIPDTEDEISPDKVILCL

[2] = target: T1, Protein cereblon/CREB-binding protein; experiment: PROTAC activity at CBP/CRBN in human VCaP cells assessed as maximal protein degradation at 1 uM incubated for 4 hrs by Western blot analysis relative to control; type: cell-based
[3] = target: T2, Protein cereblon/Histone acetyltransferase p300 (Homo sapiens, UniProt Q09472+Q96SW2); experiment: PROTAC activity at p300/CRBN in human VCaP cells assessed as maximal protein degradation at 1 uM incubated for 4 hrs by Western blot analysis relative to control; type: cell-based
[4] = target: T2, Protein cereblon/Histone acetyltransferase p300; experiment: PROTAC activity at p300/CRBN in human VCaP cells assessed as protein degradation incubated for 4 hrs by Western blot analysis; type: cell-based
[5] = Oral plasma exposure in SCID mouse at 5 mg/kg, po measured after 6 hrs; type: ADME, organism-based; details: for concentration at 6 h: SCID, plasma
[6] = Oral plasma exposure in SCID mouse at 5 mg/kg, po measured after 3 hrs; type: ADME, organism-based; details: for concentration at 3 h: SCID, plasma
[7] = Oral plasma exposure in SCID mouse at 5 mg/kg, po measured after 1 hr; type: ADME, organism-based; details: for concentration at 1 h: SCID, plasma
[8] = tested on: CWR22R; experiment: Reduction in c-Myc gene expression in AR positive human 22Rv1 cells assessed as reduction in mRNA level at 1000 nM measured after 6 hrs by qRT-PCT analysis; type: functional, cell-based
[9] = tested on: VCaP; experiment: Antitumor activity against human VCaP cells xenografted in CB17 SCID mouse model assessed as tumor growth inhibition at 20 mg/kg, po qd scheduled 5 days in a week measured on day 63; type: functional; details: 1512 h, time 63 day, read-out: TGI
[10] = tested on: CWR22R; experiment: Antiproliferative activity against AR positive human 22Rv1 cells assessed inhibition of cell growth measured after 4 days by CellTiter-Glo Luminescent cell viability assay; type: functional, cell-based; details: 22Rv1, 96 h
[11] = tested on: LNCaP; experiment: Antiproliferative activity against AR positive human LNCaP cells assessed inhibition of cell growth measured after 4 days by CellTiter-Glo Luminescent cell viability assay; type: functional, cell-based; details: 96 h
[12] = tested on: VCaP; experiment: Reduction in c-Myc gene expression in AR positive human VCaP cells assessed as reduction in mRNA level at 1000 nM measured after 6 hrs by qRT-PCT analysis; type: functional, cell-based
[13] = tested on: CWR22R; experiment: Reduction in KLK3 gene expression in AR positive human 22Rv1 cells assessed as reduction in mRNA level at 1000 nM measured after 6 hrs by qRT-PCT analysis; type: functional, cell-based
[14] = tested on: LNCaP; experiment: Reduction in KLK3 gene expression in AR positive human LNCaP cells assessed as reduction in mRNA level at 1000 nM measured after 6 hrs by qRT-PCT analysis; type: functional, cell-based
[15] = tested on: VCaP; experiment: Reduction in AR gene expression in AR positive human VCaP cells assessed as reduction in mRNA level at 1000 nM measured after 6 hrs by qRT-PCT analysis; type: functional, cell-based
[16] = tested on: VCaP; experiment: Reduction in KLK3 gene expression in AR positive human VCaP cells assessed as reduction in mRNA level at 1000 nM measured after 6 hrs by qRT-PCT analysis; type: functional, cell-based
[17] = tested on: VCaP; experiment: Antiproliferative activity against AR positive human VCaP cells assessed inhibition of cell growth measured after 4 days by CellTiter-Glo Luminescent cell viability assay; type: functional, cell-based; details: 96 h
[18] = tested on: CWR22R; experiment: Reduction in AR gene expression in AR positive human 22Rv1 cells assessed as reduction in mRNA level at 1000 nM measured after 6 hrs by qRT-PCT analysis; type: functional, cell-based
[19] = tested on: LNCaP; experiment: Reduction in c-Myc gene expression in AR positive human LNCaP cells assessed as reduction in mRNA level at 1000 nM measured after 6 hrs by qRT-PCT analysis; type: functional, cell-based
[20] = tested on: LNCaP; experiment: Reduction in AR gene expression in AR positive human LNCaP cells assessed as reduction in mRNA level at 1000 nM measured after 6 hrs by qRT-PCT analysis; type: functional, cell-based

| SMILES | DC50 [1] [nM] | Emax [2] [%] | Emax [3] [%] | DC50 [4] [nM] | concentration at 6 h [5] [ng/mL] | concentration at 3 h [6] [ng/mL] | concentration at 1 h [7] [ng/mL] | further results |
| --- | --- | --- | --- | --- | --- | --- | --- | --- |
| CC(=O)N1CCc2c(c(N3CCCc4cc(-c5cnn(C)c5)c(C(F)F)cc43)nn2C2CCN(C(=O)CCCCNc3ccc4c(c3)C(=O)N(C3CCC(=O)NC3=O)C4=O)CC2)C1 (configuration not stated) | 0.4 | > 95 | > 95 | 0.4 | – | – | – | – |
| CC(=O)N1CCc2c(c(N3CCCc4cc(-c5cnn(C)c5)c(C(F)F)cc43)nn2C2CCN(CC3CN(c4ccc5c(c4)C(=O)N(C4CCC(=O)NC4=O)C5=O)C3)CC2)C1 (configuration not stated) | 1.1 | > 95 | > 95 | 0.4 | 7.4 | 16.7 | 23.8 | – |
| CC(=O)N1CCc2c(c(N3CCCc4cc(-c5cnn(C)c5)c(C(F)F)cc43)nn2C2CCN(C(=O)CCCNc3cccc4c3C(=O)N(C3CCC(=O)NC3=O)C4=O)CC2)C1 (configuration not stated) | 1.4 | 92 | 93 | 1.2 | – | – | – | – |
| CC(=O)N1CCc2c(c(N3CCCc4cc(-c5cnn(C)c5)c(C(F)F)cc43)nn2C2CCN(C(=O)Nc3ccc4c(c3)C(=O)N(C3CCC(=O)NC3=O)C4=O)CC2)C1 (configuration not stated) | < 0.2 | > 95 | > 95 | < 0.2 | – | – | – | Cp ([5]; in vivo, po, 5 mg/kg, 6 h, BLD = below limit of detection): Bld; Cp ([6]; in vivo, po, 5 mg/kg, 3 h, BLD = below limit of detection): Bld; Cp ([7]; in vivo, po, 5 mg/kg, 1 h, BLD = below limit of detection): Bld |
| CC(=O)N1CCc2c(c(N3CCCc4cc(-c5cnn(C)c5)c(C(F)F)cc43)nn2C2CCN(C3CC4(CCN(c5ccc6c(c5)C(=O)N(C5CCC(=O)NC5=O)C6=O)CC4)C3)CC2)C1 (configuration not stated) | 1.1 | > 95 | > 95 | 0.4 | 328 | 312 | 493 | – |
| CC(=O)N1CCc2c(c(N3CCCc4cc(-c5cnn(C)c5)c(C(F)F)cc43)nn2[C@H]2CC[C@H](CN3CCN(c4cccc5c4C(=O)N(C4CCC(=O)NC4=O)C5=O)CC3)CC2)C1 (some centres not stated) | 700 | 53 | 33 | > 1000 | – | – | – | – |
| CC(=O)N1CCc2c(c(N3CCCc4cc(-c5cnn(C)c5)c(C(F)F)cc43)nn2C2CCN(C3CN(c4ccc5c(c4)C(=O)N(C4CCC(=O)NC4=O)C5=O)C3)CC2)C1 (configuration not stated) | 1.3 | > 95 | > 95 | 1.1 | 613 | 962 | 1050 | – |
| CC(=O)N1CCc2c(c(N3CCCc4cc(-c5cnn(C)c5)c(C(F)F)cc43)nn2C2CCN(C(=O)CCCCNc3cccc4c3C(=O)N(C3CCC(=O)NC3=O)C4=O)CC2)C1 (configuration not stated) | 0.4 | > 95 | > 95 | 0.1 | 1.6 | 2.7 | 5.4 | – |
| CC(=O)N1CCc2c(c(N3CCCc4cc(-c5cnn(C)c5)c(C(F)F)cc43)nn2C2CCN(C(=O)CNc3ccc4c(c3)C(=O)N(C3CCC(=O)NC3=O)C4=O)CC2)C1 (configuration not stated) | 0.7 | > 95 | > 95 | 2 | 1.5 | 1.4 | 2.6 | – |
| CNC(=O)c1ccc(N2C(=S)N(c3ccc(C#N)c(C(F)(F)F)c3)C(=O)C2(C)C)cc1F [ENZALUTAMIDE] | – | – | – | – | – | – | – | Activity [8]: Active; inhibition in vivo at 20 mg/kg [9]: 2.8%; IC50 [10]: > 1000 nM; IC50 [11]: 8000 nM; Activity [12]: Active; Activity [13]: Active; Activity [14]: Active; Activity [15]: inactive; Activity [16]: Active; IC50 [17]: 9500 nM; Activity [18]: inactive; Activity [19]: Active; Activity [20]: inactive |
